Experimental data as given in article PMC10744196, “Characterization of CrufCSP1 and Its Potential Involvement in Host Location by Cotesia ruficrus (Hymenoptera: Braconidae), an Indigenous Parasitoid of Spodoptera frugiperda (Lepidoptera: Noctuidae) in China” (Insects, 2023).
pIC50, pKd, pKi: −log10 of the molar value. Where two headings read alike, the source gives them in different places.

What was measured:
CrufCSP1 [1] = experiment: Fluorescence competitive binding assay with 1-NPN as probe; set-up: species or system Cotesia ruficrus; conditions: for pIC50: recombinant CrufCSP1 2 μM, ligand 0 to 30 μM, tris-HCl pH 7.4
Experimental: (§1) The binding affinity between CrufCSP1 and the selected volatile compounds was determined using an F-7000 fluorescence spectrophotometer (Hitachi, Tokyo, Japan). N-phenyl-1-naphthylamine (1-NPN), a fluorescence probe, was used to assess the binding affinity. A total of 24 volatiles, i.e., alcohols (heptanol, undecanol, tetradecanol, cis-3-hexen-1-ol, 1,14-tetradecanediol, 2-hexanol, phytol, and linalool), aldehydes (hexanal, heptanal, octanal, nonanal, decanal, dodecanal, pentadecanal, benzaldehyde, p-methyl benzaldehyde, and trans-2-hexenal), and others (2-hydroxy-5-methylacetophenone, 2-heptanone, palmitic acid, N,N-dimethylcaprylamide, DMNT, and cis-3-hexenyl acetate), were selected for the fluorescence binding assay with CrufCSP1. Of these compounds, our research group previously identified undecanol, tetradecanol, 2-hexanol, 1,14-tetradecanediol, phytol, dodecanal, pentadecanal, p-methyl benzaldehyde, palmitic acid, 2-hydroxy-5-methylacetophenone, and N,N-dimethylcaprylamide in the larvae of S. frugiperda. The remaining compounds were chosen based on previous studies that identified them as corn volatiles.
To prepare the tested chemicals, all were dissolved in chromatographic grade methanol to achieve a 100 mM solution, which was then stored at −20 °C. Before use, this solution was diluted to 1 mM. CrufCSP1 was dissolved in 20 mM of tris-HCl (pH 7.4) and then diluted to a 2 μM working solution. To ensure the binding affinity of 1-NPN to the protein, the CrufCSP1 solution was titrated with 1-NPN with a concentration range of 2 to 20 μM. For the fluorescence competitive binding assays, each ligand was added to a mixture containing CrufCSP1 (2 μM) and 1-NPN (2 μM) at concentrations ranging from 0 to 30 μM. The maximum fluorescence intensity was then recorded and plotted against the ligand concentration based on the average of the three repeats. The dissociation constant (Kd) for binding between CrufCSP1 and 1-NPN was calculated using the Scatchard linear regressive equation in the software GraphPad Prism 8.0 (GraphPad Software Inc., La Jolla, CA, USA). Additionally, the ligand-binding affinity (Ki) was calculated utilizing the following equation: Ki=[IC50]/(1+[1−NPN]/K1−NPN) where IC50 represents the maximum concentration at which the ligand replaces 50% of the 1 − NPN fluorescence, [1 − NPN] denotes the free concentration of 1-NPN, and K1-NPN represents the dissociation constant of the protein/1 − NPN complex.

CrufCSP1 [2] = experiment: Binding of fluorescent probe 1-NPN to recombinant CrufCSP1 (Scatchard plot); set-up: species or system Cotesia ruficrus; conditions: CrufCSP1 2 μM titrated with 1-NPN 2 to 20 μM, read-out: dissociation constant toward 1-NPN
Experimental: as §1, with “Of these compounds, our research group previously identified undecanol, tetradecanol, 2-hexanol, 1,14-tetradecanediol, phytol, dodecanal, pentadecanal, p-methyl benzaldehyde, palmitic acid, 2-hydroxy-5-methylacetophenone, and N,N-dimethylcaprylamide in the larvae of S. frugiperda. The remaining compounds were chosen based on previous studies that identified them as corn volatiles.” left out
To prepare the tested chemicals, all were dissolved in chromatographic grade methanol to achieve a 100 mM solution, which was then stored at −20 °C. […] For the fluorescence competitive binding assays, each ligand was added to a mixture containing CrufCSP1 (2 μM) and 1-NPN (2 μM) at concentrations ranging from 0 to 30 μM. The maximum fluorescence intensity was then recorded and plotted against the ligand concentration based on the average of the three repeats. […]

[3] = calculated from IC50: Ki=[IC50]/(1+[1-NPN]/K1-NPN), CrufCSP1 2 μM, 1-NPN 2 μM

Row | Compound | pKi (CrufCSP1 [1]; [3]) | pIC50 (CrufCSP1 [1]; 1-NPN 2 μM) | other results
1 | OCCCCCCCCCCCCCCO [1,14-Tetradecanediol] | < 4.30 | < 4.30 | –
2 | c1ccc(Nc2cccc3ccccc23)cc1 [1-NPN, N-phenyl-1-naphthylamine] | – | – | pKd (CrufCSP1 [2]): 5.12
3 | CCCCCC(C)=O [2-Heptanone] | < 4.30 | < 4.30 | –
4 | CCCCC(C)O (centres unmarked) [2-Hexanol] | < 4.30 | < 4.30 | –
5 | CC(=O)c1cc(C)ccc1O [2-Hydroxy-5-methylacetophenone] | 4.70 | 4.64 | pKi (CrufCSP1 [1]; calculated from IC50: Ki=[IC50]/(1+[1-NPN]/K1-NPN), CrufCSP1 2 μM, 1-NPN 2 μM, listed as 2-hydroxy-5-methylacetophenone): > 4.70
6 | O=Cc1ccccc1 [Benzaldehyde] | – | 4.76 | pKi (CrufCSP1 [1]): 4.82; pKi (CrufCSP1 [1]; listed as benzaldehyde): > 4.70
7 | C=C/C=C(\C)CCC=C(C)C [DMNT] | – | < 4.30 | pKi (CrufCSP1 [1]): < 4.30
8 | CCCCCCCCCC=O [Decanal] | 4.66 | 4.60 | –
9 | CCCCCCCCCCCC=O [Dodecanal] | 4.44 | 4.39 | –
10 | CCCCCCC=O [Heptanal] | < 4.30 | < 4.30 | –
11 | CCCCCCCO [Heptanol] | 4.56 | 4.50 | –
12 | CCCCCC=O [Hexanal] | 4.71 | 4.66 | pKi (CrufCSP1 [1]; calculated from IC50: Ki=[IC50]/(1+[1-NPN]/K1-NPN), CrufCSP1 2 μM, 1-NPN 2 μM, listed as hexanal): > 4.70
13 | C=CC(C)(O)CCC=C(C)C (centres unmarked) [Linalool] | 4.70 | 4.65 | pKi (CrufCSP1 [1]; calculated from IC50: Ki=[IC50]/(1+[1-NPN]/K1-NPN), CrufCSP1 2 μM, 1-NPN 2 μM, listed as linalool): > 4.70
14 | CCCCCCCC(=O)N(C)C [N,N-Dimethylcaprylamide] | 4.71 | 4.66 | pKi (CrufCSP1 [1]; calculated from IC50: Ki=[IC50]/(1+[1-NPN]/K1-NPN), CrufCSP1 2 μM, 1-NPN 2 μM, listed as N,N-dimethylcaprylamide): > 4.70
15 | CCCCCCCCC=O [Nonanal] | < 4.30 | < 4.30 | –
16 | CCCCCCCC=O [Octanal] | 4.82 | 4.77 | pKi (CrufCSP1 [1]; calculated from IC50: Ki=[IC50]/(1+[1-NPN]/K1-NPN), CrufCSP1 2 μM, 1-NPN 2 μM, listed as octanal): > 4.70
17 | CCCCCCCCCCCCCCCC(=O)O [Palmitic acid] | < 4.30 | < 4.30 | –
18 | CCCCCCCCCCCCCCC=O [Pentadecanal] | – | 4.35 | pKi (CrufCSP1 [1]): 4.41
19 | CCCCCCCCCCCCCCO [Tetradecanol] | < 4.30 | < 4.30 | –
20 | CCCCCCCCCCCO [Undecanol] | < 4.30 | < 4.30 | –
21 | CC/C=C\CCO [cis-3-Hexen-1-ol] | 4.61 | 4.55 | –
22 | CC/C=C\CCOC(C)=O [cis-3-Hexenyl acetate] | 4.53 | 4.48 | –
23 | Cc1ccc(C=O)cc1 [p-Methyl benzaldehyde] | – | 4.34 | pKi (CrufCSP1 [1]): 4.40
24 | CCC/C=C/C=O [trans-2-Hexenal] | – | 4.78 | pKi (CrufCSP1 [1]): 4.84; pKi (CrufCSP1 [1]; listed as trans-2-hexenal): > 4.70
25 | Phytol | – | < 4.30 | pKi (CrufCSP1 [1]): < 4.30
